The source of these data is US11161856B2 (H. Lundbeck A/S, priority 2017, dated 2021).

One assay deals with T1, ABHD6 (Mus musculus, UniProt Q8R2Y0).
T1 construct: Brain; from tissue; host or cells: mouse brain proteome
T1 sequence (Q8R2Y0 1-336): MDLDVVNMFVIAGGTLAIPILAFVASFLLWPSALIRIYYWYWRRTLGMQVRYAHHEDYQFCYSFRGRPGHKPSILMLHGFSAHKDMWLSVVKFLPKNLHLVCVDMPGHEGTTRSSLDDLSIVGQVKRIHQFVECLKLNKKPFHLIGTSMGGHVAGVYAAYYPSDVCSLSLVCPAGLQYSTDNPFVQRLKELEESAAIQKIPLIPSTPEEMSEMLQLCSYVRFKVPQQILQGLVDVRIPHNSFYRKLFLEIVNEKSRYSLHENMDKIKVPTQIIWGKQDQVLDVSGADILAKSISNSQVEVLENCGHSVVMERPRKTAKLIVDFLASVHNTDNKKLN
The assay can be described thus: In vitro competitive activity-based protein profiling, mouse brain proteome (ABHD6). Conditions: mouse brain proteome; concentration not given (μM). The class given is biochemical. On the procedure: [The source words this procedure for another target and reports this target under the same test.] In Vitro Competitive Activity-Based Protein Profiling.
Proteomes (human prefrontal cortex or cell membrane fractions) (50 μL, 1.0 mg/mL total protein concentration) were preincubated with varying concentrations of inhibitors at 37° C. After 30 min, FP-Rh or HT-01 (1.0 μL, 50 μM in DMSO) was added and the mixture was incubated for another 30 min at room temperature. Reactions were quenched with SDS loading buffer (15 μL-4×) and run on SDS-PAGE.

A further assay addresses T2, MGLL (Mus musculus, UniProt O35678).
T2 construct: Brain; from tissue; host or cells: mouse brain proteome
T2 sequence (O35678 1-303): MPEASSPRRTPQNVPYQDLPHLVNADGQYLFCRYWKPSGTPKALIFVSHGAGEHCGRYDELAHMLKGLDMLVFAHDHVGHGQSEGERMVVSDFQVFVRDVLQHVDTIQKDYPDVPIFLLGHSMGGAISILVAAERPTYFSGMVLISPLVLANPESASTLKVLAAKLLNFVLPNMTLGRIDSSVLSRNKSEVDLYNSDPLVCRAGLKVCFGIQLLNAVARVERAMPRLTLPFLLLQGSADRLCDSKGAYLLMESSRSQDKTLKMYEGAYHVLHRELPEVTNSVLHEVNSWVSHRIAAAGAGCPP
The assay can be described thus: In vitro competitive activity-based protein profiling, mouse brain proteome (MGLL). The class given is biochemical. As to conditions: concentration not given (μM).

Consider `O=C(OC(C(F)(F)F)C(F)(F)F)N1CCC2(CC1)CN(Cc1c(N3CCOCC3)cccc1C(F)(F)F)C2` [Example 43, 1,1,1,3,3,3-Hexafluoropropan-2-yl 2-(2-morpholino-6-(trifluoromethyl)benzyl)-2,7-diazaspiro[3.5]nonane-7-carboxylate], for which, at ABHD6, the “% Inh ABHD6 Brain (Mouse, μM)” value was “## (## is between 25 and 75%)”. Further, on MGLL, the “% Inh MGLL Brain (Mouse, μM)” value was “### (### is ≥75%)”.
Regarding `CCN1CCN(c2cccc(Cl)c2CN2CC3(CCN(C(=O)OC(C(F)(F)F)C(F)(F)F)CC3)C2)CC1` [Example 50, 1,1,1,3,3,3-Hexafluoropropan-2-yl 2-(2-chloro-6-(4-ethylpiperazin-1-yl)benzyl)-2,7-diazaspiro[3.5]nonane-7-carboxylate], the “% Inh ABHD6 Brain (Mouse, μM)” value on ABHD6 is given as “### (### is ≥75%)”. Moreover, the “% Inh MGLL Brain (Mouse, μM)” value at MGLL is recorded as “### (### is ≥75%)”.
For `O=C(OC(C(F)(F)F)C(F)(F)F)N1CC2(CCN(Cc3ccc(CN4CCOCC4)cc3)CC2)C1` [Example 18, 1,1,1,3,3,3-Hexafluoropropan-2-yl 7-(4-(morpholinomethyl)benzyl)-2,7-diazaspiro[3.5]nonane-2-carboxylate], the “% Inh ABHD6 Brain (Mouse, μM)” value on ABHD6 is recorded as “### (### is ≥75%)”. For the same compound, the “% Inh MGLL Brain (Mouse, μM)” value at MGLL was “## (## is between 25 and 75%)”.
With `CCN1CCC2(CC1)CCN(c1cc(Cl)cc(CN3CCCC34CN(C(=O)OC(C(F)(F)F)C(F)(F)F)C4)c1)C2` [Example 239, 1,1,1,3,3,3-Hexafluoropropan-2-yl 5-(3-chloro-5-(8-ethyl-2,8-diazaspiro[4.5]decan-2-yl)benzyl)-2,5-diazaspiro[3,4]octane-2-carboxylate], at ABHD6, the “% Inh ABHD6 Brain (Mouse, μM)” value is “## (## is between 25 and 75%)”. In addition, the “% Inh MGLL Brain (Mouse, μM)” value on MGLL was “## (## is between 25 and 75%)”.
With `O=C(OC(C(F)(F)F)C(F)(F)F)N1CCC2(CC1)CN(Cc1c(N3CCC(F)CC3)cccc1C(F)(F)F)C2` [Example 51, 1,1,1,3,3,3-Hexafluoropropan-2-yl 2-(2-(4-fluoropiperidin-1-yl)-6-(trifluoromethyl)benzyl)-2,7-diazaspiro[3,5]nonane-7-carboxylate], the “% Inh ABHD6 Brain (Mouse, μM)” value at ABHD6 is recorded as “### (### is ≥75%)”. Besides, at MGLL, the “% Inh MGLL Brain (Mouse, μM)” value is on record as “### (### is ≥75%)”.
Turning to `CC(=O)N1CC2(CCN(c3cc(C(F)(F)F)ccc3CN3CCN(C(=O)OC(C(F)(F)F)C(F)(F)F)CC3)CC2)C1` [Example 216, 1,1,1,3,3,3-Hexafluoropropan-2-yl 4-(2-(2-acetyl-2,7-diazaspiro[3.5]nonan-7-yl)-4-(trifluoromethyl)benzyl) piperazine-1-carboxylate], the “% Inh ABHD6 Brain (Mouse, μM)” value at ABHD6 was “## (## is between 25 and 75%)”. Also, the “% Inh MGLL Brain (Mouse, μM)” value on MGLL is recorded as “### (### is ≥75%)”.
Turning to `O=C(O)C1CCN(c2ccc(CN3CC4(CCN(C(=O)OC(C(F)(F)F)C(F)(F)F)CC4)C3)cc2)CC1` [Example 74, 1-(4-((7-(((1,1,1,3,3,3-Hexafluoropropan-2-yl)oxy)carbonyl)-2,7-diazaspiro[3.5]nonan-2-yl)methyl)phenyl)piperidine-4-carboxylic acid], the “% Inh ABHD6 Brain (Mouse, μM)” value on ABHD6 was “### (### is ≥75%)”. The “% Inh MGLL Brain (Mouse, μM)” value on MGLL is listed as “# (# is ≤25%)”.
The matching figures for `CC(=O)N1CC2(CCN(c3cc(Cl)ccc3CN3CCN(C(=O)OC(C(F)(F)F)C(F)(F)F)CC3)C2)C1` [Example 176, 1,1,1,3,3,3-Hexafluoropropan-2-yl 4-(2-(2-acetyl-2,6-diazaspiro[3.4]octan-6-yl)-4-chlorobenzyl)piperazine-1-carboxylate]: “# (# is ≤25%)” and “### (### is ≥75%)”.
For `O=C(O)C1CCN(c2cc(C(F)(F)F)ccc2CN2CCC3(CC2)CCN(C(=O)OC(C(F)(F)F)C(F)(F)F)C3)CC1` [Example 195, l-(2-((2-(((l,1,1,3,3,3-Hexafluoropropan-2-yl)oxy)carbonyl)-2,8-diazaspino[4.5]decan-8-yl)melhyl)-5-(trifluoromethyl)phenyl)piperidine-4-carboxylic acid], the “% Inh ABHD6 Brain (Mouse, μM)” value on ABHD6 is reported as “# (# is ≤25%)”. Also, the “% Inh MGLL Brain (Mouse, μM)” value at MGLL is recorded as “### (### is ≥75%)”.
